# PMC5944028, “Nonclinical and clinical pharmacological characterization of the potent and selective cathepsin K inhibitor MIV-711” (Journal of Translational Medicine, 2018)
# Read-outs that look alike come from different tables or passages of the source.
# Key:
# urinary CTX-II = details: cited from earlier work
# [1] = Monkey plasma pharmacokinetics, single oral dose; type: in vivo, cynomolgus monkeys (Macaca fascicularis); details: for AUC0–t / AUCinf / Cmax / Cmax/dose / t½: geometric mean (CV%); for tmax: median (min–max)
# Procedure: Eight cynomolgus monkeys (Macaca fascicularis) were used for measuring plasma levels of MIV-711 and CTX-I after a single dose. The animals were healthy young males, approximately 2–4 years old and weighing 3–4 kg. Experiments were performed at Covance Ltd (Harrogate, UK). The monkeys were used over an extended period of time (up to a year) and several cathepsin K inhibitors were evaluated during this time. At least 1 week was allowed for washout in between experiments. This was not believed to affect the results with MIV-711, and vehicle controls were run on a regular basis when appropriate. Each animal received at least one dose of MIV-711 and one dose of vehicle with at least 1 week of washout in between treatments.
# In single dose experiments, animals were dosed with vehicle or MIV-711 (3–30 µmol/kg) via oral gavage at a dose volume of 4 mL/kg between 7:30 and 9:00 a.m. Blood samples were collected at baseline, 30 min, 1, 2, 4, 8, 12, 24 and 48 h after dose from the femoral vein and transferred into lithium heparin anticoagulant tubes. The samples were centrifuged and the two aliquots of the resultant plasma were frozen at − 70 °C. All samples were processed and stored within 30 min of collection. The aliquots were used to determine the MIV-711 concentration and CTX-I levels, respectively. [drawing 1]
# The quantification of MIV-711 in monkey plasma was performed by taking 10–50 µL of plasma and mixing with 3 volumes of acetonitrile (10 s, Vibrofix). The sample was centrifuged (10 min, 20,000×g, 7 °C) and 5 µL of the supernatant was injected onto the liquid chromatography with tandem mass spectrometric detection (LC–MS/MS) system. The lowest concentration of the standard curves and the lower limit of quantification (LLOQ) was 1 nmol/L of MIV-711. The human plasma samples were prepared by protein precipitation for sample extraction followed by LC–MS/MS. The lowest concentration of the standard curves and the LLOQ was 4 nmol/L of MIV-711 using 25 µL of plasma.
# urine CTX-II = assay: Monkey urine CTX-II, multiple doses; type: in vivo, cynomolgus monkeys (Macaca fascicularis)
# Procedure: Biomarkers such as NTX-I (bone resorption) and CTX-II (cartilage degradation) are typically measured in urine. Additional experiments in which urine was collected were therefore performed. In these experiments, four cynomolgus monkeys (Macaca fascicularis) were used (Aptuit, Edinburgh, UK). The animals were healthy young females weighing 3.5–4 kg. Animals were dosed with vehicle or MIV-711 via oral gavage at a dose volume of 5 mL/kg between 7:30 and 8:30 a.m. Animals first received vehicle via oral gavage for five consecutive days. After a washout period, the animals then received MIV-711 (30 µmol/kg) via oral gavage for five consecutive days.
# Urine was collected between 8–12 a.m., 12 a.m.–4 p.m. and 4 p.m.–8 a.m. on Day 1 and Day 5 of respective treatment. Biomarkers were measured in each urine sample, corrected for creatinine, and the mean value of the three samples on Day 1 and Day 5 was calculated. The effect of MIV-711 was evaluated by comparing biomarkers in urine samples collected on Day 1 and Day 5 with respective vehicle sample. [drawing 3]
# The quantification of CTX-I in monkey plasma samples and human serum samples was performed using a commercially available kit (Serum CrossLaps ELISA, IDS Nordic, Herlev, Denmark). The levels of CTX-I in monkey urine samples were measured using a commercially available kit (Urine BETA CrossLaps ELISA, IDS Nordic). […]
smiles,measurement,setting,value
C#C[C@@H]1CN(C(=O)[C@H](CC(C)C)NC(=O)c2ccc(-c3nc(N4CCN(C)CC4)sc3F)cc2)[C@@H]2C(=O)CO[C@H]12 [MIV-711],Reduction of urinary CTX-II,"urinary CTX-II; healthy subjects, 200 mg daily for 7 days",72%
same,Reduction of urinary CTX-II,"urinary CTX-II; postmenopausal women, 100 mg once daily for 1 month",55%
same,AUC0–t,[1]; 3 µmol/kg p.o. single dose,0.400 (60) µmol/L × h
same,AUCinf,[1]; 3 µmol/kg p.o. single dose,0.409 (62) µmol/L × h
same,Cmax,[1]; 3 µmol/kg p.o. single dose,102 nM
same,Cmax/dose,[1]; 3 µmol/kg p.o. single dose,0.034 (65)
same,t½,[1]; 3 µmol/kg p.o. single dose,2.1 (16) h
same,tmax,[1]; 3 µmol/kg p.o. single dose,2.0 (2.0–2.0) h
same,AUC0–t,[1]; 10 µmol/kg p.o. single dose,0.881 (52) µmol/L × h
same,AUCinf,[1]; 10 µmol/kg p.o. single dose,0.932 (46) µmol/L × h
same,Cmax,[1]; 10 µmol/kg p.o. single dose,164 nM
same,Cmax/dose,[1]; 10 µmol/kg p.o. single dose,0.016 (41)
same,t½,[1]; 10 µmol/kg p.o. single dose,3.1 (52) h
same,tmax,[1]; 10 µmol/kg p.o. single dose,2.0 (0.50–4.0) h
same,AUC0–t,[1]; 30 µmol/kg p.o. single dose,6.21 (62) µmol/L × h
same,AUCinf,[1]; 30 µmol/kg p.o. single dose,6.28 (62) µmol/L × h
same,Cmax,[1]; 30 µmol/kg p.o. single dose,923 nM
same,Cmax/dose,[1]; 30 µmol/kg p.o. single dose,0.031 (56)
same,t½,[1]; 30 µmol/kg p.o. single dose,3.4 (30) h
same,tmax,[1]; 30 µmol/kg p.o. single dose,2.0 (1.0–4.0) h
same,Plasma concentration at 24 h post-dose,[1]; highest dose group (30 µmol/kg p.o.),approximately 10 nmol/L
same,Plasma concentration at 24 h post-dose,"[1]; lowest dose group (3 µmol/kg p.o.), below LLOQ",< 1 nM
same,Reduction of urinary CTX-II compared to vehicle,"urine CTX-II; 30 µmol/kg p.o. once daily for 5 days, creatinine-corrected",71%
same,Effect on urinary CTX-II compared to vehicle,urine CTX-II; single dose 30 µmol/kg p.o. (Day 1),unaffected
